# Measurements reported in patent US20050059641A1, “Compositions and methods for treating and preventing cancer using analogs of vitamin D” (Aphios Corporation, priority 2003, published 2005).
# Entries after “also recorded” stand apart in the source; their conditions may differ.
# Legend:
# [1] = test system: keratinocytes (primary cells); experiment: 3H-thymidine incorporation assay, keratinocytes; format: cell-based, human; details: 10^−6M
# Source text: (§1) It is well known that secretory epithelial cells are the main sites for the development of cancers of the breast, prostate and various other organs.
# (§2) In a study, investigators compared the growth-inhibitory effects of 25-OH-D3-3-BE and 1,25(OH)2D3 in several VDR-positive epithelial cells, e.g. keratinocytes (primary skin cells), MCF-7 cells (breast cancer cells), hormone-sensitive LNCaP and hormone-refractory PC3 cells (prostate cancer cells), and PZ-HPV-7 (papillovirus immortalized normal prostate cells) by using ^3H-thymidine incorporation assays (FIGS. 14-19).
# [2] = test system: MCF-7 cells (breast cancer cells); experiment: 3H-thymidine incorporation assay, MCF-7; format: cell-based; details: 10^−6M
# Source text: as §1
# It is well-established that the biological properties of 1,25(OH)2D3 and its analogs are mediated by their interaction with VDR.
# as §2
# [3] = test system: LNCaP cells (prostate cancer cells); experiment: 3H-thymidine incorporation assay, LNCaP; format: cell-based, human; details: 10^−6M
# Experimental: The inventors further studied the effect of 1,25(OH)2D3-3-BE on LNCAP cells (most closely resembling human hormone-sensitive prostate cancer) and PZ-HPV-7 cells (immortalized normal prostate cells). The cells were treated with ethanol or 10^−6M of either 1,25(OH)2D3 or 1,25(OH)2D3-3-BE for 16 hours and the effect on proliferation was determined by ^3H-thymidine incorporation assays as described earlier. The viable cell count was determined by Methylene blue assay. The Methylene blue assay is a simple colorimetric method that is widely used to determine the viable cell count.
# The inventors studied dose-dependency of antiproliferation and cytotoxicity by 1,25(OH)2D3 or 1,25(OH)2D3-3-BE in LNCaP cells. The cells were treated with 10^−8-10^−6M of either 1,25(OH)2D3 or 1,25(OH)2D3-3-BE or ethanol (used as a control). The effect on proliferation and viable cell count were determined by using ^3H-thymidine incorporation and Methylene blue assay respectively. […]
# as §2
# [4] = test system: prostate tumor induced with PC-3 cells; experiment: in vivo effect in mice bearing prostate tumor induced with PC-3 cells; design: species or system male SCID mice; details: SCID mice with PC-3 tumor
# Experimental: Sesame oil solutions (200 μl) of either 25-OH-D3 (10 μg) or 25-OH-D3-3-BE (13.2 μg, molar equivalent of 25-OH-D3) or vehicle were administered i.p. in alternate days for two weeks. […] At the end, mice were anesthetized, tumors were removed, and blood was collected. Tumors were embedded in paraffin and sections were made.
# vitamin D receptor, VDR = vitamin D receptor, VDR (Homo sapiens, UniProt P11473); experiment: cross-linking (affinity labeling) of the hormone-binding pocket of VDR; details: FIG. 13
# vitamin D receptor, VDR, sequence (P11473 whole entry): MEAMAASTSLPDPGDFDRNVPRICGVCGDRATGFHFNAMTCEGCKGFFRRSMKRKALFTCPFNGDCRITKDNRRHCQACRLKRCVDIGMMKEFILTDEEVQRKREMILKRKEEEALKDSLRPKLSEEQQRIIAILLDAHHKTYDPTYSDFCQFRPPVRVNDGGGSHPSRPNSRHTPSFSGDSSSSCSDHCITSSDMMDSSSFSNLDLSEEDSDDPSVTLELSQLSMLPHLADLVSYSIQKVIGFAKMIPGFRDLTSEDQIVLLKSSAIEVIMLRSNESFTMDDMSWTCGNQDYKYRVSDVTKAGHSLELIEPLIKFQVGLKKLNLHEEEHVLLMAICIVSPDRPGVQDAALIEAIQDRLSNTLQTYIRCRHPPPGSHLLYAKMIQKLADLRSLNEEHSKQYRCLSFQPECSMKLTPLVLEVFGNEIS
# Source text: The present invention is directed, in part, to novel analogs of 1,25(OH)2D3, for example, 1,25(OH)2D3-3-BE and 25(OH)2D3-3-BE. The inventors have developed a novel affinity alkylating analog of 1,25(OH)2D3 which cross links 1,25(OH)2D3 to the hormone-binding pocket of VDR via a nucleophilic displacement reaction between a Cys residue in the hormone-binding pocket (Cys288) and a reactive bromoacetate group at the 3-position of 1,25(OH)2D3 (Ray R, Ray S., and Holick M. F. 1″,25-dihydroxyvitamin D3-3-deoxy-3$-bromoacetate, an affinity labeling analog of 1″,25-dihydroxyvitamin D3. (1994) Bioorg. Chem. 22 276-283; Ray R, Swamy N, MacDonald P N, Ray S, Haussler M R, and Holick M F. (1996) Affinity labeling of 1″,25-dihydroxyvitamin D3 receptor. J. Biol Chem 271 2012-2017; Swamy N, Kounine M, and Ray R. (1997) Identification of the subdomain in the nuclear receptor for the hormonal form of vitamin D3, 1″,25-dihydroxyvitamin D3, vitamin D receptor, that is covalently modified by an affinity labeling reagent. Arch Biochem Biophys 348 91-95; Chen M L, Ray S, Swamy N, Holick M F, and Ray R. Mechanistic studies to evaluate the enhanced anti-proliferation of human keratinocytes by 1α,25-dihydroxyvitamin D3-3-bromoacetate, a covalent modifier of vitamin D receptor, compared to 1α,25-dihydroxyvitamin D3. (1999) Arch. Biochem. Biophys. […]
compound,measurement,setting,value
"C=C1CCC(OC(=O)CBr)CC1=CC=C1CCCC2(C)C1CCC2C(C)CCCC(C)(C)O (stereo not shown) [25-OH-D3-3-BE, 25-hydroxyvitamin D3-3-bromoacetate]",growth-inhibitory effect (3H-thymidine incorporation),[1],antiproliferative
same,lethal to the cells,[1],not
same,growth-inhibitory effect (3H-thymidine incorporation),[2],antiproliferative
same,lethal to the cells,[2],not
same,growth-inhibitory effect (3H-thymidine incorporation),[3],"stronger antiproliferative agent than 1,25(OH)2D3"
same,lethal to the cells,[3],lethal
same,loss of body weight,[4]; 13.2 μg i.p. in alternate days for two weeks,no significant loss of body weight
same,Hematoxylin-Eosin staining of the tumor sections,"[4]; 13.2 μg i.p. in alternate days for two weeks, versus vehicle (sesame oil)",considerably less cellular
same,condition of the mice at the end of treatment,[4]; 25-OH-D3 10 μg or 25-OH-D3-3-BE 13.2 μg (molar equivalent) i.p. in alternate days for two weeks,viable
same,cross-linking (labeling) of the hormone-binding pocket of VDR,"vitamin D receptor, VDR",specifically cross-links to the hormone binding pocket of VDR; also recorded: specifically labels the hormone-binding pocket of VDR
